Assay results published in EPA's ToxValDB 9.5 (doi:10.2903/j.efsa.2008.124r).
Converted amounts (≈) assume the structure as drawn.

Tests used:
Phasianus sp. = settings: acute; oral; unspecified; mortality
Anas platyrhynchos = settings: acute; oral; unspecified; mortality
Bibionidae = settings: chronic/long-term; duration: 28 days; development
Tagia sp. = settings: acute; duration: 14 days; mortality
Lepomis macrochirus = settings: acute; duration: 96 hours; mortality
Folsomia candida = settings: chronic/long-term; duration: 28 days
Oncorhynchus mykiss = settings: chronic/long-term; duration: 21 days; mortality
Canidae = settings: chronic; duration: 1 years; oral; Dog Other; organ weight
Apis mellifera = settings: acute, mortality
Daphnia magna = settings: chronic/long-term; duration: 21 days; mortality

SMILES: CC(Cc1ccc(C(C)(C)C)cc1)CN1CCCCC1 (stereo unspecified) [Fenpropidin]
- LD50 (Rattus norvegicus; acute, mortality): 1450 mg/kg-day
- NOAEL (Rattus norvegicus; chronic, duration: 2 years, body weight): 2.27 mg/kg-day
- NOAEL (Rattus norvegicus; reproduction developmental): 60.2 mg/kg-day
- LD50 (Phasianus sp.): 369 mg/kg-day
- LD50 (Anas platyrhynchos): 1900 mg/kg-day
- NOEC (Bibionidae): 1 mg/L
- LC50 (Tagia sp.): > 500 mg/kg
- LC50 (Lepomis macrochirus): 1.9 µg/mL (≈ 6.95 µM)
- NOEC (Folsomia candida): 46.5 mg/kg
- NOEC (Oncorhynchus mykiss): 0.32 mg/L
- NOAEL (Canidae): 2 mg/kg-day
- LD50 (Apis mellifera; dermal): 46 µg/piece
- LD50 (Apis mellifera; oral, unspecified): > 10 µg/piece
- NOEC (Daphnia magna): 0.32 mg/L
- LD50 (Colinus virginianus; acute, oral, diet, mortality): > 1420 mg/kg-day
- NOAEL (Colinus virginianus; reproduction developmental): 14.6 mg/kg-day
